The values that follow come from patent publication US8026243B2, “[4,5′]Bipyrimidinyl-6,4′-diamine derivatives as protein kinase inhibitors” (Novartis AG, priority 2006, dated 2011).

The assay deals with T1, Ba/F3-TEL-FGFR3 cells (Homo sapiens, UniProt P22607).
T1 construct: fused on or other part: The N-terminal oligomerising part of TEL (ETV6) is fused before the intracellular kinase part of FGFR3; P41212 (Transcription factor ETV6)
The assay can be described thus: FGFR3 cellular assay: proliferation of transformed Ba/F3-TEL-FGFR3 cells (AlamarBlue). Conditions: 48 hours incubation, class symbols. It counts as cell-based. The gist of the method:
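Ba/F3-TEL-FGFR3 cells (5000/well) in RPMI 1640 with 10% FBS, exposed to twelve-point 1:3 compound dilutions for 48 h. Proliferation read by AlamarBlue (10% final, 4 h at 37 °C), fluorescence Ex530/Em580; IC50 from linear regression of percent inhibition.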
(In general: Resazurin is reduced to fluorescent resorufin, in cell work by metabolically active cells.)

Structures are written as SMILES. Bounds are passed on as bounds.

T1 sequence (P22607 whole entry, change not shown, the tested form may be a part): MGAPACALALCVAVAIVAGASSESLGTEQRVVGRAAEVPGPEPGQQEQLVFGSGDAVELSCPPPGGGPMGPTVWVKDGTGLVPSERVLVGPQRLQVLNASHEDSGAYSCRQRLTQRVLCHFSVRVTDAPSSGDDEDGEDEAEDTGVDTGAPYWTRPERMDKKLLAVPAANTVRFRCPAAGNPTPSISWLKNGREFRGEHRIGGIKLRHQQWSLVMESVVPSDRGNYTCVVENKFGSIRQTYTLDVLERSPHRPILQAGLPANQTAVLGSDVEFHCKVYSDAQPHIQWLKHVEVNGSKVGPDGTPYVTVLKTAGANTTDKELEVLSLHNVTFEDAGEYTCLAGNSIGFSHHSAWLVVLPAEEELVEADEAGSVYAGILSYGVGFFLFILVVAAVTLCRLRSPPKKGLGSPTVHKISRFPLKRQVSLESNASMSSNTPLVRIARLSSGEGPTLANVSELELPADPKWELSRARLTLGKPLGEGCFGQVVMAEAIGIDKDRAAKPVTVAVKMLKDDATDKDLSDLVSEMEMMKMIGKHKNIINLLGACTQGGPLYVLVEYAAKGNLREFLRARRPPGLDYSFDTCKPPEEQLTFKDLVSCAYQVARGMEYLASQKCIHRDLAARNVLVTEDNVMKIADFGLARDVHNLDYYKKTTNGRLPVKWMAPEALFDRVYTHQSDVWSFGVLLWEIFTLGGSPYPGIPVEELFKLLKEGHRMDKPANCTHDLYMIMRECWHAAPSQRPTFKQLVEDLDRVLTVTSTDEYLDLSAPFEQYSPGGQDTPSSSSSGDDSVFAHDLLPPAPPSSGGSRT

Consider `COc1cc(OC)c(Cl)c(Nc2ncncc2-c2cc(Nc3ccc(C(C)O)cn3)ncn2)c1Cl` (stereo not drawn) [Compound 82, 1-{6-[4′-(2,6-Dichloro-3,5-dimethoxy-phenylamino)-[4,5′]bipyrimidinyl-6-ylamino]-pyridin-3-yl}-ethanol], for which the GI50 (usually the concentration giving 50% growth inhibition) was below 100 nM.

In the case of `COc1cc(Nc2ncncc2-c2cc(Nc3ccc(C(C)O)cn3)ncn2)c(F)c(OC)c1` (stereo not drawn) [Compound 83, 1-{6-[4′-(2-Fluoro-3,5-dimethoxy-phenylamino)-[4,5′]bipyrimidinyl-6-ylamino]-pyridin-3-yl}-ethanol], the GI50 was below 100 nM.

As to `COc1cc(Nc2ncncc2-c2cc(Nc3ccc(CCN4CCOCC4)cn3)ncn2)c(F)c(OC)c1` [Compound 84, N4′-(2-Fluoro-3,5-dimethoxy-phenyl)-N6-[5-(2-morpholin-4-yl-ethyl)-pyridin-2-yl]-[4,5′]bipyrimidinyl-6,4′-diamine], the GI50 was below 100 nM.

For the molecule `COc1cc(OC)c(F)c(Nc2ncncc2-c2cc(Nc3ccc(CCN4CCOCC4)cn3)ncn2)c1F` [Compound 85, N4′-(2,6-Difluoro-3,5-dimethoxy-phenyl)-N6-[5-(2-morpholin-4-yl-ethyl)-pyridin-2-yl]-[4,5′]bipyrimidinyl-6,4′-diamine], the GI50 was below 100 nM.

As for `COc1cc(OC)c(Cl)c(Nc2ncncc2-c2cc(Nc3ccc(CCN4CCOCC4)cn3)ncn2)c1C` [Compound 86, N4′-(2-Chloro-3,5-dimethoxy-6-methyl-phenyl)-N6-[5-(2-morpholin-4-yl-ethyl)-pyridin-2-yl]-[4,5′]bipyrimidinyl-6,4′-diamine], the 50% growth inhibitory concentration (GI50) lay within 250 to 500 nM.

`COc1cc(OC)c(Cl)c(Nc2ncncc2-c2cc(Nc3ccc(CN4CCN(C(=O)CO)CC4)cn3)ncn2)c1Cl` [Compound 87, 1-(4-{6-[4′-(2,6-Dichloro-3,5-dimethoxy-phenylamino)-[4,5′]bipyrimidinyl-6-ylamino]-pyridin-3-ylmethyl}-piperazin-1-yl)-2-hydroxy-ethanone] yielded a GI50 below 100 nM.

In turn, `COc1cc(OC)c(Cl)c(Nc2ncncc2-c2cc(Nc3ccc(CN4CCN(C(=O)CO)CC4)cn3)ncn2)c1F` [Compound 88, 1-(4-{6-[4′-(2-Chloro-6-fluoro-3,5-dimethoxy-phenylamino)-[4,5′]bipyrimidinyl-6-ylamino]-pyridin-3-ylmethyl}-piperazin-1-yl)-2-hydroxy-ethanone] had a GI50 below 100 nM.

As for `COc1cc(OC)c(F)c(Nc2ncncc2-c2cc(Nc3ccc(CN4CCN(C(=O)CO)CC4)cn3)ncn2)c1F` [Compound 89], the GI50 is below 100 nM.

Take `COc1cc(Nc2ncncc2-c2cc(Nc3ccc(CN4CCN(C(=O)CO)CC4)cn3)ncn2)c(F)c(OC)c1` [Compound 90]: the GI50 was below 100 nM.

For `COc1cc(OC)c(Cl)c(Nc2nc(C)ncc2-c2cc(Nc3ccc(CN4CCOCC4)cn3)ncn2)c1F` [Compound 91, N4′-(2-Chloro-6-fluoro-3,5-dimethoxy-phenyl)-2′-methyl-N6-(5-morpholin-4-ylmethyl-pyridin-2-yl)-[4,5′]bipyrimidinyl-6,4′-diamine], the GI50 was below 100 nM.

`COc1cc(C(=O)Nc2cccc(C(F)(F)F)c2)c(Cl)c(Nc2ncncc2-c2cc(Nc3ccc(CN4CCOCC4)cn3)ncn2)c1Cl` [Compound 92, 2,4-dichloro-5-methoxy-3-(6-(5-(morpholinomethyl)pyridin-2-ylamino)-4,5′-bipyrimidin-4′-ylamino)-N-(3-(trifluoromethyl)phenyl)benzamide] had a GI50 below 100 nM.

`CCN1CCN(Cc2ccc(NC(=O)c3cc(OC)c(Cl)c(Nc4ncncc4-c4cc(Nc5ccc(CN6CCOCC6)cn5)ncn4)c3Cl)cc2C(F)(F)F)CC1` [Compound 93, 2,4-dichloro-N-(4-((4-ethylpiperazin-1-yl)methyl)-3-(trifluoromethyl)phenyl)-5-methoxy-3-(6-(5-(morpholinomethyl)pyridin-2-ylamino)-4,5′-bipyrimidin-4′-ylamino)benzamide] registered a GI50 below 100 nM.
